# Measured values taken from patent US4145554A, “3-Nitropyrazole derivatives” (Eli Lilly and Company, priority 1977, dated 1979).
# Where two headings read alike, the source gives them in different places.
# Key:
# Mycoplasma hyorhinis = assay: in vitro tube dilution test (MIC); assay type: cell-based
# Excerpt: (§1) Our compound, 1-(2-hydroxyethyl)-3-nitro-4-pyrazolecarboxamide, has been extensively tested in vitro to determine the range of microorganisms against which it is active. The table of data below reports the minimum inhibitory concentration (MIC) at which the compound is effective in controlling a variety of microorganisms in a standard tube dilution test system. The MIC is reported as micrograms of compound per milliliter.
# (§2) The other preferred compounds of our invention have also been thoroughly tested in the in vitro tube dilution test.
# Pseudomonas sp. = assay: in vitro tube dilution test (MIC); assay type: cell-based
# Excerpt: as §1, §2
# [1] = system: Salmonella heidelburg 1593; assay: in vitro tube dilution test (MIC); assay type: cell-based; conditions: Salmonella heidelburg 1593 (turkey pancreas), tube dilution
# Excerpt: as §1, §2
# Salmonella pullorum Ill. = assay: in vitro tube dilution test (MIC); assay type: cell-based; conditions: Salmonella enterica
# Excerpt: as §1, §2
# [2] = system: Salmonella typhimurium 1335; assay: in vitro tube dilution test (MIC); assay type: cell-based; conditions: Salmonella enterica; Salmonella typhimurium 1335 (turkey intestine), tube dilution
# Excerpt: as §1, §2
# Pasteurella multocida = assay: in vitro tube dilution test (MIC); assay type: cell-based; conditions: tube dilution, read-out: MIC
# Outline: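 Standard tube dilution test; MIC is the lowest compound concentration controlling growth, given in μg/mL.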
# Hemophilus gallinarum = assay: in vitro tube dilution test (MIC); assay type: cell-based
# Hemophilus somnus = assay: in vitro tube dilution test (MIC); assay type: cell-based
# Pseudomonas aeruginosa = assay: agar dilution technique (MIC); assay type: cell-based
# Erwinia amylovora = assay: Fire blight of pear, in vivo greenhouse test
# Experimental: An in vivo test was conducted against the fire blight organism, Erwinia amylovora. Plants infected with E. amylovora were sprayed with aqueous dispersions containing 100 ppm. and 500 ppm. of the test compounds. […] The compounds are identified below by their compound numbers in the above listing.
# E. amylovora = assay: Fire blight of field-grown pear trees, natural and induced infections; assay type: in vivo; conditions: 100 to 800 ppm. aqueous dispersions
# Experimental: Our compound, 1-(2-hydroxyethyl)-3-nitro-4-pyrazolecarboxamide, was also tested against natural and induced infections of E. amylovora on field-grown pear trees.
# [3] = system: naturally-occurring pneumoenteritis complex infection (pasteurella species, E. coli and salmonellae); assay: Pneumoenteritis complex disease in calves, first test; assay type: in vivo; conditions: for Mortality / Avg. Wt. Gain: milk replacer, 56 days; for Avg. Wt. Gain: survivors
# Experimental: Our compound, 1-(2-hydroxyethyl)-3-nitro-4-pyrazolecarboxamide, was evaluated in the control of a naturally-occurring pneumoenteritis complex infection of calves. […] A group of 24 calves was allocated randomly into three treatment groups. The average weights of the treatment groups were nearly identical at the start of the experiment. The calves were housed in quarters which were kept as clean as typical calf quarters, but in which calves suffering from pneumoenteritis complex had previously been housed. […] One group was a control group, and was fed on a typical milk replacer diet. The other two groups received 200 mg. and 400 mg. per day respectively of the 3-nitro-pyrazole compound, mixed in their milk replacer diets.
# The calves were carefully observed daily to detect signs of illness as quickly as such signs appeared. The calves were weighed at weekly intervals. Various organs were removed from the calves which died during the experiment, and cultures were prepared from the organs to identify microorganisms. At the end of the 56-day experiment, cultures were prepared from nasal and rectal swabs of the surviving calves, and microorganisms in the cultures were identified.
# Salmonella typhimurium = assay: Salmonellosis in chickens, single injection to day-old chicks; assay type: in vivo; conditions: Salmonella enterica, TYPHIMURIUM, 168 h; single injection of 60 mg./kg.; seven days; read-out: Survival (converted)
# Outline: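 Five day-old chicks per group received one injection of compound at 60 mg./kg., then were challenged next day by subcutaneous S. typhimurium at a dose lethal to most or all untreated controls. Read-out is survivor count, pooled over repeat groups, with untreated challenged controls run in each batch.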
# M. gallisepticum = assay: Mycoplasma gallisepticum in chickens; assay type: in vivo
# Experimental: A group of broiler type chickens, weighing about 1265 gm., were obtained from a homogeneous source flock. The birds were allocated into 12-bird treatment groups of equal weight. Four treatment groups were used in each of the treatments, including the untreated infected controls; two groups were held as normal controls.
# The birds, other than the normal controls, were challenged by administering two 0.2 ml. injections of a freshly thawed M. gallisepticum culture to each bird, one injection in the wing vein and one in the air sac. Immediately after the challenge, four of the treatment groups were treated by injecting 25 mg./kg., intramuscularly, of 1-(2-hydroxyethyl)-3-nitro-4-pyrazolecarboxamide to each chicken. The other four treated groups received the same compound at 2 gm./gal. (about 50 mg./kg./day) in their drinking water for a period of 41/2 days after the challenge was administered.
# The birds were held and observed for about 3 weeks. Mortality in the experiment was negligible. At the end of the observation period, the birds were sacrificed and examined for M. gallisepticum lesions of the air sac. A sample of blood from each bird was tested to determine the presence of M. gallisepticum antibodies. […] The final average weights and the air sac lesion counts are shown below.
# Salmonella typhosa = assay: agar dilution technique (MIC); conditions: Salmonella enterica
# [4] = 200 mg./day/calf (3-5 mg./kg./day)
# [5] = 400 mg./day/calf (6-10 mg./kg./day)
smiles,measurement,setting,value
"NC(=O)c1cn(CCO)nc1[N+](=O)[O-] [Compound 32, 1-(2-hydroxyethyl)-3-nitro-4-pyrazolecarboxamide]",MIC,Mycoplasma hyorhinis,50 µg/mL
same,MIC,Pseudomonas sp.,12.5 µg/mL
same,MIC,[1],< 1.56 µg/mL
same,MIC,Salmonella pullorum Ill.,< 1.56 µg/mL
same,MIC,[2],6.25 µg/mL
same,MIC,Pasteurella multocida; Cattle Isolates,< 1.56 µg/mL
same,MIC,Pasteurella multocida; Swine Isolate (first line),> 50 µg/mL
same,MIC,Pasteurella multocida; Swine Isolate (second line),6.25 µg/mL
same,MIC,Pasteurella multocida; Turkey Isolates,> 50 µg/mL
same,MIC,Hemophilus gallinarum,0.78 µg/mL
same,MIC,Hemophilus somnus,> 100 µg/mL
same,MIC,Pseudomonas aeruginosa,128 µg/mL
same,Percent Control of fire blight,Erwinia amylovora; 100 ppm.,50%
same,Percent Control of fire blight,Erwinia amylovora; 500 ppm.,92%
same,control of fire blight on field-grown pear trees,E. amylovora,controlled fire blight on the pear trees
same,Mortality,[3]; [4],1/8
same,Avg. Wt. Gain,[3]; [4],36.6 lbs.
same,Mortality,[3]; [5],1/8
same,Avg. Wt. Gain,[3]; [5],55.3 lbs.
same,surviving treated calves with P. multocida or hemolytica in nasal swabs,"[3]; 200 and 400 mg. per day groups, end of 56 days",11 of the 14 surviving treated calves
same,surviving calves with E. coli in rectal swabs,"[3]; of 14 surviving treated calves, end of 56 days",12 of the surviving calves
same,responders at 60 mg/kg,Salmonella typhimurium,93.3%
same,Air Sac Lesions,M. gallisepticum; 25 mg./kg. (injected),41/48
same,Avg. Wt.,M. gallisepticum; 25 mg./kg. (injected),2093 gm.
same,Air Sac Lesions,M. gallisepticum; 2.0 gm./gal. drinking water,24/47
same,Avg. Wt.,M. gallisepticum; 2.0 gm./gal. drinking water,2188 gm.
same,increase of birds' weight,"M. gallisepticum; in one case (average, each)",more than 160 gm.
same,increase of birds' weight,"M. gallisepticum; in the other treatment (average, each)",~260 gm.
same,MIC,Salmonella typhosa,2 µg/mL
